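In this assay, cells in 96-well plates receive the compound at five concentrations for 48 hours. Endpoints are linearly interpolated between the surrounding concentrations. The concentration for 50% growth inhibition is given as GI50.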 The source made the active and inactive calls. Cut-off read from the data, not from the text of the source: active = GI50 up to about 1.1 µM and inactive = higher.
Tests used:
Experiment in all cases: NCI anticancer screen, dose series, 48 h
[1] = system: DMS-114
[2] = system: LXFL 529
[3] = system: SF-539
[4] = system: NCI-H23
[5] = system: DLD-1
[6] = system: HT-29
[7] = system: COLO 205
[8] = system: NCI-H522
[9] = system: A549
[10] = system: SNB-19
[11] = system: XF498
[12] = system: OVCAR-5
[13] = system: EKVX
[14] = system: HCT-116
[15] = system: ACHN
[16] = system: UACC-62
[17] = system: OVCAR-3
[18] = system: SNB-75
[19] = system: HCT-15
[20] = system: 786-0
[21] = system: SR
[22] = system: NCI-H226
[23] = system: LOX IMVI
[24] = system: MOLT-4
[25] = system: SK-MEL-2
[26] = system: HCC 2998
[27] = system: SK-OV-3
[28] = system: UACC-257
[29] = system: KM-20L2
[30] = system: OVCAR-8
[31] = system: IGROV-1
[32] = system: U-251
[33] = system: DMS-273
[34] = system: KM12
[35] = system: CCRF-CEM
[36] = system: SN12C
[37] = system: K562
[38] = system: CAKI-1
[39] = system: Malme-3M
[40] = system: HOP-92
[41] = system: TK-10
[42] = system: HL-60
[43] = system: SK-MEL-5
[44] = system: M14
[45] = system: SK-MEL-28
[46] = system: SF-268
[47] = system: HOP-62
[48] = system: RPMI-8226
[49] = system: NCI-H460
[50] = system: M19-MEL
[51] = system: SW-620
[52] = system: UO-31
[53] = system: RXF 393
[54] = system: SNB-78
[55] = system: A498
[56] = system: OVCAR-4
[57] = system: SF-295

In the case of S=c1[nH]c(=S)c2nnn(-c3ccccc3)c2[nH]1, the GI50 [1] was 5.97 µM (inactive), the GI50 [2] was > 100 µM (inactive) and the GI50 [3] was > 100 µM (inactive). For the same molecule, the GI50 [4] was > 100 µM (inactive), the GI50 [5] was > 100 µM (inactive) and the GI50 [6] was > 100 µM (inactive). For the same molecule, the GI50 [7] was > 100 µM (inactive), the GI50 [8] was > 100 µM (inactive) and the GI50 [9] was > 100 µM (inactive). The GI50 [10] was > 100 µM (inactive), the GI50 [11] was > 100 µM (inactive) and the GI50 [12] was > 100 µM (inactive). The GI50 [13] was > 100 µM (inactive), the GI50 [14] was 0.0836 µM (active) and the GI50 [15] was > 100 µM (inactive). For the same molecule, the GI50 [16] was > 100 µM (inactive), the GI50 [17] was > 100 µM (inactive) and the GI50 [18] was > 100 µM (inactive). The GI50 [19] was > 100 µM, the GI50 [20] was > 100 µM (inactive) and the GI50 [21] was > 100 µM (inactive). For the same molecule, the GI50 [22] was > 100 µM (inactive), the GI50 [23] was > 100 µM (inactive) and the GI50 [24] was > 100 µM (inactive). The GI50 [25] was > 100 µM (inactive), the GI50 [26] was > 100 µM (inactive) and the GI50 [27] was > 100 µM (inactive). The GI50 [28] was > 100 µM (inactive), the GI50 [29] was > 100 µM (inactive) and the GI50 [30] was > 100 µM (inactive). For the same molecule, the GI50 [31] was > 100 µM (inactive), the GI50 [32] was > 100 µM (inactive) and the GI50 [33] was > 100 µM (inactive). For the same molecule, the GI50 [34] was > 100 µM (inactive), the GI50 [35] was > 100 µM (inactive) and the GI50 [36] was > 100 µM (inactive). The GI50 [37] was > 100 µM (inactive), the GI50 [38] was > 100 µM (inactive) and the GI50 [39] was > 100 µM (inactive). The GI50 [40] was > 100 µM (inactive), the GI50 [41] was > 100 µM (inactive) and the GI50 [42] was > 100 µM (inactive). For the same molecule, the GI50 [43] was > 100 µM (inactive), the GI50 [44] was > 100 µM (inactive) and the GI50 [45] was > 100 µM (inactive). The GI50 [46] was > 100 µM (inactive), the GI50 [47] was > 100 µM (inactive) and the GI50 [48] was > 100 µM (inactive). The GI50 [49] was > 100 µM (inactive), the GI50 [50] was > 100 µM (inactive) and the GI50 [51] was > 100 µM (inactive). The GI50 [52] was > 100 µM (inactive) and the GI50 [53] was > 100 µM (inactive).

For O=C1c2cc3c(cc2[C@@H]2NC4CCCC14O2)OCO3 (some centres undefined), the GI50 [1] was > 100 µM (inactive), the GI50 [2] was > 100 µM (inactive) and the GI50 [3] was > 100 µM (inactive). For the same molecule, the GI50 [4] was > 100 µM (inactive), the GI50 [5] was > 100 µM (inactive) and the GI50 [6] was > 100 µM (inactive). The GI50 [8] was > 100 µM (inactive), the GI50 [9] was > 100 µM (inactive) and the GI50 [10] was > 100 µM (inactive). For the same molecule, the GI50 [54] was > 100 µM (inactive), the GI50 [11] was > 100 µM (inactive) and the GI50 [12] was > 100 µM (inactive). For the same molecule, the GI50 [13] was > 100 µM (inactive), the GI50 [14] was > 100 µM (inactive) and the GI50 [55] was > 100 µM (inactive). The GI50 [56] was > 100 µM (inactive), the GI50 [15] was > 100 µM (inactive) and the GI50 [16] was > 100 µM (inactive). The GI50 [17] was > 100 µM (inactive), the GI50 [18] was > 100 µM (inactive) and the GI50 [57] was > 100 µM (inactive). For the same molecule, the GI50 [20] was > 100 µM (inactive), the GI50 [21] was > 100 µM (inactive) and the GI50 [22] was > 100 µM (inactive). For the same molecule, the GI50 [24] was > 100 µM (inactive), the GI50 [25] was > 100 µM (inactive) and the GI50 [27] was > 100 µM (inactive). The GI50 [28] was > 100 µM (inactive), the GI50 [29] was > 100 µM (inactive) and the GI50 [30] was > 100 µM (inactive). For the same molecule, the GI50 [31] was > 100 µM (inactive), the GI50 [32] was > 100 µM (inactive) and the GI50 [33] was > 100 µM (inactive). The GI50 [34] was > 100 µM (inactive), the GI50 [35] was > 100 µM (inactive) and the GI50 [36] was > 100 µM (inactive). For the same molecule, the GI50 [37] was > 100 µM (inactive), the GI50 [38] was > 100 µM (inactive) and the GI50 [40] was > 100 µM (inactive). The GI50 [41] was > 100 µM (inactive), the GI50 [42] was > 100 µM (inactive) and the GI50 [43] was > 100 µM (inactive). For the same molecule, the GI50 [44] was > 100 µM (inactive), the GI50 [45] was > 100 µM (inactive) and the GI50 [46] was > 100 µM (inactive). For the same molecule, the GI50 [47] was > 100 µM (inactive), the GI50 [49] was > 100 µM (inactive) and the GI50 [50] was > 100 µM (inactive). The GI50 [51] was > 100 µM (inactive), the GI50 [52] was > 100 µM (inactive) and the GI50 [53] was > 100 µM (inactive).

— ChEMBL document CHEMBL1201862, “PubChem BioAssay data set” (2004)
